Calls of active or inactive are those of the source. How the calls were made is not given here.

The subject of this series is GENE-TOX genotoxicity assays, various organisms and cells. Nature of the series: GENE-TOX mutagenicity studies. The conditions noted are these: for call: Assay Type: In vivo carcinogenicity studies.
[1] abbreviates: Species/Cell Type: Nonhuman, Assay Code: CCG+L, Evaluation Type: Evaluation A (Pre-1980).
Setting [2] is: Species/Cell Type: Salmonella typhimurium (one or more of the five standard strains: TA98, TA100, TA1535, TA1537, and TA1538), Assay Type: Histidine reverse gene mutation, Ames assay, Assay Code: SALT, Evaluation Type: Evaluation A (Pre-1980).
Setting [3] is: Species/Cell Type: Bacillus subtilis (H17 vs M45), Assay Type: Rec-assay, spot test, DNA effects (bacterial DNA repair), Assay Code: REW-, Evaluation Type: Evaluation A (Pre-1980).
[4] abbreviates: Species/Cell Type: Saccharomyces cerevisiae, Assay Type: Reverse gene mutation, Assay Code: YERT, Evaluation Type: Evaluation A (Pre-1980).
The mark [5] stands for this setting: Species/Cell Type: Nonhuman, Assay Type: Sister-chromatid exchange (SCE) in vitro, Assay Code: SC2+D, Dose Response: With dose response, Evaluation Type: Evaluation B (Post-1980).
The mark [6] stands for this setting: Species/Cell Type: Salmonella typhimurium (one or more of the five standard strains: TA98, TA100, TA1535, TA1537, and TA1538), Assay Type: Histidine reverse gene mutation, Ames assay, Assay Code: SAL+*, Activation: With metabolic activation, Evaluation Type: Evaluation A (Pre-1980).
Where [7] appears, read: Species/Cell Type: Escherichia coli WP2, Assay Type: Tryptophan reverse gene mutation, Assay Code: WP2-, Evaluation Type: Evaluation A (Pre-1980).
Setting [8] is: Species/Cell Type: Mammalian polychromatic erythrocytes, Assay Type: Micronucleus test, chromosome aberrations, Assay Code: MNTT, Evaluation Type: Evaluation A (Pre-1980).
[9] abbreviates: Species/Cell Type: Nonhuman, Assay Type: Sister-chromatid exchange (SCE) in vivo, Assay Code: SC3T, Evaluation Type: Evaluation B (Post-1980).
[10] abbreviates: Species/Cell Type: Saccharomyces cerevisiae, Assay Type: Mitotic recombination or gene conversion, Assay Code: YEC-, Evaluation Type: Evaluation A (Pre-1980).
Setting [11] is: Species/Cell Type: Human lymphocytes, Assay Type: Sister-chromatid exchange (SCE) in vitro, Assay Code: SCLT, Evaluation Type: Evaluation B (Post-1980).
[12] abbreviates: Species/Cell Type: Human, Assay Type: Sister-chromatid exchange (SCE) in vitro, Assay Code: SC1T, Evaluation Type: Evaluation B (Post-1980).

For `O=C1c2ccccc2NC(c2ccc([N+](=O)[O-])o2)N1O` (stereo not given), the mutagenic call (Species/Cell Type: Mammalian polychromatic erythrocytes, Assay Type: Micronucleus test, chromosome aberrations, Assay Code: MNT-, Evaluation Type: Evaluation B (Post-1980)) was “inactive; negative”.

Consider `C=CC1CO1` (stereo not given), for which, under “Species/Cell Type: Nonhuman, Assay Type: Sister-chromatid exchange (SCE) in vivo, Assay Code: SC3+D, Dose Response: With dose response, Evaluation Type: Evaluation B (Post-1980)”, the mutagenic call was “active; positive”.

Take `Cc1cccc(N(C)C(=S)Oc2ccc3ccccc3c2)c1`: the mutagenic call (Species/Cell Type: Neurospora crassa, Assay Type: Aneuploidy, chromosome aberrations, Assay Code: NEN-, Evaluation Type: Evaluation A (Pre-1980)) was “inactive; negative”.

`Cc1c2ccccc2c(CO)c2ccc3c(c12)C=C[C@@H](O)[C@@H]3O`: the call under setting [1] was “active; positive”.

Take `Cc1ccccc1N=Nc1ccc(N=Nc2c(O)ccc3ccccc23)c(C)c1`: the mutagenic call is “no conclusion” under setting [2] and “active; positive” (Species/Cell Type: Syrian hamster embryo (SA7/SHE) cells, Assay Type: Cell transformation, viral enhanced, Assay Code: CT7+, Evaluation Type: Evaluation A (Pre-1980)).

As to `FC1(F)C(F)(F)C(F)(F)C1(F)F`, the mutagenic call (Species/Cell Type: Drosophila melanogaster, Assay Type: Sex-linked recessive lethal gene mutation, Assay Code: SRLT, Evaluation Type: Evaluation A (Pre-1980)) is “no conclusion”.

With `COC(=O)Nc1nc2ccc(C(=O)c3ccccc3)cc2[nH]1`, the mutagenic call (Species/Cell Type: Salmonella typhimurium, Assay Type: Forward and reverse gene mutation, body fluid assay, Assay Code: BFU+, Evaluation Type: Evaluation A (Pre-1980)) was “active; positive”; the mutagenic call (Species/Cell Type: Salmonella typhimurium, Assay Type: Forward and reverse gene mutation, host-mediated assay, Assay Code: HMA+, Evaluation Type: Evaluation A (Pre-1980)) was “active; positive”.

Regarding `CC(C)NP(=O)(N1CC1)N1CC1`, the mutagenic call was “active; positive” (Species/Cell Type: Drosophila melanogaster, Assay Type: Sex-linked recessive lethal gene mutation, Assay Code: SRL+, Evaluation Type: Evaluation A (Pre-1980)) and “active; positive” (Species/Cell Type: Nonhuman, Assay Type: Chromosome aberrations in vitro, Assay Code: CY&+, Evaluation Type: Evaluation A (Pre-1980)).

As to `[Cl][Nb]([Cl])([Cl])([Cl])[Cl]`, the mutagenic call under setting [3] was “inactive; negative”.

Take `CCN(CC)Cc1cc(Br)ccc1OCC(=O)N/N=C/c1ccccc1O`: under setting [4], the mutagenic call is reported as “no conclusion”.

Turning to `OO`, the mutagenic call by setting is: (Species/Cell Type: Escherichia coli polA (W3119 vs P3478), Assay Type: Rec-assay, DNA effects (bacterial DNA repair), Assay Code: RE1+, Evaluation Type: Evaluation A (Pre-1980)) “active; positive”; (Species/Cell Type: Human diploid fibroblasts, Assay Type: Unscheduled DNA synthesis (UDS) in vitro, DNA effects, Assay Code: UDH+, Evaluation Type: Evaluation A (Pre-1980)) “active; positive”; (Species/Cell Type: Human lymphocytes, Assay Type: Sister-chromatid exchange (SCE) in vitro, Assay Code: SCL+D, Dose Response: With dose response, Evaluation Type: Evaluation B (Post-1980)) “active; positive”; (Species/Cell Type: Human, Assay Type: Sister-chromatid exchange (SCE) in vitro, Assay Code: SC1+D, Dose Response: With dose response, Evaluation Type: Evaluation B (Post-1980)) “active; positive”; (Species/Cell Type: Neurospora crassa, Assay Type: Reverse gene mutation, Assay Code: NER+, Evaluation Type: Evaluation A (Pre-1980)) “active; positive”; under setting [5], “active; positive”. In addition, the mutagenic call reads like this: under setting [2], “no conclusion”; (Species/Cell Type: Schizosaccharomyces pombe, Assay Type: Reverse gene mutation, Assay Code: YEZ+, Evaluation Type: Evaluation A (Pre-1980)) “active; positive”; (Species/Cell Type: Vicia faba, Assay Type: Chromosome aberrations, Assay Code: VIC-, Evaluation Type: Evaluation A (Pre-1980)) “inactive; negative”.

As for `Nc1ccc(N=Nc2ccc(S(=O)(=O)O)cc2)c(N)c1`, the mutagenic call under setting [6] was “active; positive”.

For `O=S1(=O)CC=CC1`, the call (Species/Cell Type: Nonhuman, Assay Code: CCG-, Evaluation Type: Evaluation A (Pre-1980)) was “inactive; negative”.

Consider `CNC(=O)Oc1ccc(C)c(C)c1`, for which the mutagenic call was “inactive; negative” (Species/Cell Type: Bacillus subtilis (H17 vs M45T), Assay Type: Rec-assay, spot test, DNA effects (bacterial DNA repair), Assay Code: REX-, Evaluation Type: Evaluation A (Pre-1980)) and “inactive; negative” under setting [7].

Turning to `O=S(O)(O)=S`, under “Species/Cell Type: Allium cepa, Assay Type: Chromosome aberrations, Assay Code: ALC-, Evaluation Type: Evaluation A (Pre-1980)”, the mutagenic call is “inactive; negative”.

Take `Cc1ccc(N)cc1O`: the mutagenic call under setting [8] is listed as “no conclusion”.

Take `CC(C)(C)NCC(O)COc1cccc2c1CCC(=O)N2` (stereo not given): the mutagenic call under setting [3] was “inactive; negative”; the mutagenic call under setting [7] is “inactive; negative”; the mutagenic call (Species/Cell Type: Escherichia coli WP2 UVRA, Assay Type: Tryptophan reverse gene mutation, Assay Code: WPU-, Evaluation Type: Evaluation A (Pre-1980)) was “inactive; negative”; the mutagenic call (Species/Cell Type: Salmonella typhimurium, Assay Type: Forward and reverse gene mutation, host-mediated assay, Assay Code: HMA-, Evaluation Type: Evaluation A (Pre-1980)) is “inactive; negative”.

`COc1ccc2c(c1)CC[C@@H]1[C@@H]2CC[C@]2(C)[C@@H](O)[C@H](O)C[C@@H]12`: where the note is “Species/Cell Type: Rat, Sex: Male, Assay Type: Sperm morphology, Assay Code: SPA+, Evaluation Type: Evaluation A (Pre-1980)”, the mutagenic call was “active; positive”.

Consider `CCCCCCO`, for which the mutagenic call under setting [9] was “no conclusion”.

As to `CCCOc1ccc(CC(=O)OC)cc1CSC(=N)N`, the mutagenic call under setting [4] was “no conclusion”.

In the case of `COc1cc(/C=C/C(=O)CC(=O)/C=C/c2ccc(O)c(OC)c2)ccc1O`, the mutagenic call under setting [10] was “inactive; negative”.

Regarding `O=C1O[C@H]([C@@H](O)CO)C(O)=C1O`, the mutagenic call was “active; positive” (Species/Cell Type: Human lymphocytes, Assay Type: Sister-chromatid exchange (SCE) in vitro, Assay Code: SCL+, Evaluation Type: Evaluation A (Pre-1980)); “no conclusion” under setting [11]; “active; positive” (Species/Cell Type: Human, Assay Type: Sister-chromatid exchange (SCE) in vitro, Assay Code: SC1+, Evaluation Type: Evaluation A (Pre-1980)); “no conclusion” under setting [12]; “no conclusion” under setting [8]; “inactive; negative” (Species/Cell Type: Mouse, Sex: Male, Assay Type: Sperm morphology, Assay Code: SPI-, Evaluation Type: Evaluation A (Pre-1980)). Besides, the mutagenic call is “active; positive” (Species/Cell Type: Nonhuman, Assay Type: Sister-chromatid exchange (SCE) in vitro, Assay Code: SC2+, Evaluation Type: Evaluation A (Pre-1980)); “active; positive” under setting [5]; “no conclusion” under setting [9]; “no conclusion” under setting [2].

As for `[Zn]`, the mutagenic call (Species/Cell Type: Human lymphocytes or leukocytes, Assay Type: Chromosome aberrations in vivo, Assay Code: CY8T, Evaluation Type: Evaluation A (Pre-1980)) is “no conclusion”.

On to `O=C1c2c(O)ccc(Cl)c2C(=O)c2c(O)ccc(Cl)c21`, for which the mutagenic call (Species/Cell Type: Salmonella typhimurium (one or more of the five standard strains: TA98, TA100, TA1535, TA1537, and TA1538), Assay Type: Histidine reverse gene mutation, Ames assay, Assay Code: SAL+, Evaluation Type: Evaluation A (Pre-1980)) was “active; positive”.

With `Cc1cc2c(c3ccc4ccccc4c13)CC(O)C2=O` (stereo not given), under setting [6], the mutagenic call is “active; positive”.

As to `CCNC(=O)[C@@H]1CCCN1C(=O)[C@H](CCCN=C(N)N)NC(=O)[C@H](CC(C)C)NC(=O)[C@@H](Cc1c[nH]c2ccccc12)NC(=O)[C@H](Cc1ccc(O)cc1)NC(=O)[C@H](CO)NC(=O)[C@H](Cc1c[nH]c2ccccc12)NC(=O)[C@H](Cc1cnc[nH]1)NC(=O)[C@@H]1CCC(=O)N1`, the mutagenic call (Species/Cell Type: Human, Sex: Male, Assay Type: Sperm morphology, Assay Code: SPH+, Evaluation Type: Evaluation A (Pre-1980)) is “active; positive”.

With `CNN`, the mutagenic call is “active; positive” (Species/Cell Type: Escherichia coli WP2 UVRA, Assay Type: Tryptophan reverse gene mutation, Assay Code: WPU+, Evaluation Type: Evaluation A (Pre-1980)); “inactive; negative” (Species/Cell Type: Human diploid fibroblasts, Assay Type: Unscheduled DNA synthesis (UDS) in vitro, DNA effects, Assay Code: UDH-, Evaluation Type: Evaluation A (Pre-1980)); “inactive; negative” (Species/Cell Type: Rodents, Sex: Male, Assay Type: Dominant lethal test, Assay Code: DLT-, Evaluation Type: Evaluation A (Pre-1980)); “inactive; negative” under setting [10]; “active; positive” under setting [6]. Also, the call under setting [1] was “active; positive”.

For the compound `Cc1ncc([N+](=O)[O-])n1CC(=O)O`, the mutagenic call is, setting by setting: under setting [11], “no conclusion”; under setting [12], “no conclusion”.

For `CS(=O)(=O)OC[C@@H](O)[C@H](O)COS(C)(=O)=O`, the mutagenic call was “active; positive” (Species/Cell Type: Allium cepa, Assay Type: Chromosome aberrations, Assay Code: ALC+, Evaluation Type: Evaluation A (Pre-1980)) and “active; positive” (Species/Cell Type: Arabidopsis species, Assay Type: Gene mutation, Assay Code: ARM+, Evaluation Type: Evaluation A (Pre-1980)).

The values are drawn from PubChem BioAssay AID1259408 (Genetic Toxicology Data Bank (GENE-TOX), 2018).
